{"source": "patent US20150320787A1", "about": "“COBALAMIN COMPOSITIONS AND METHODS FOR TREATING OR PREVENTING MUCOSITIS” (OraHealth Corp., priority 2006, published 2015)", "key": {"[1]": {"experiment": "Placebo-controlled test of adhering dissolving discs, one each day, in subjects with minor RAU at least monthly", "assay_type": "in vivo, human", "conditions": "active group, seven subjects, discs with 500 mcg methylcobalamin, 30 discs, placebo discs with red food coloring", "text": "(§1) Troches in the form of dissolving muco-adhesive tablets may be made by pressing powders including mucoadhesive hydrocolloids. A preferred form of such an adhering troche may be made by mixing dry powders consisting of 80 percent acacia gum (gum arabic) for adhesive and 20 percent xylitol for flavor, then adding up to 1 percent carboxymethylcellulose (CMC), to enhance mouth feel, moderate adhesiveness of the acacia gum, and slow dissolution, and about 500 micrograms of cobalamin. The tablet may be pressed into the shape shown in FIG. 3 for good adhesion to a tooth. Such a tablet is suitably about 8 mm in diameter and about 85 milligrams in weight.\n(§2) The typical instruction to users is to stick a troche in their mouths, just before they go to sleep, between teeth and cheek, placing it on the tongue side of the teeth if the patient suffers particularly from ulcers on or under the tongue and otherwise placing it on the cheek side. In greater detail, the instructions state: “Use after brushing teeth, at least one disc per day, and allow to dissolve for 30 minutes with nothing else in your mouth. In an area of your mouth where you experience sores, use your tongue to hold the dimpled side of the disc against a tooth until it adheres. The disc will slowly dissolve over 10 to 40 minutes, releasing cobalamin which is absorbed directly into the mouth lining tissues. […]"}, "[2]": {"experiment": "Non-blinded test of active adhering dissolving discs in additional subjects", "assay_type": "in vivo, human", "text": "as §1, §2"}}}
{"smiles": "C/C1=C2/[N-][C@H]([C@H](CC(N)=O)[C@@]2(C)CCC(=O)NC[C@@H](C)OP(=O)([O-])O[C@H]2[C@@H](O)[C@@H](n3cnc4cc(C)c(C)cc43)O[C@@H]2CO)[C@]2(C)N=C(/C(C)=C3N=C(/C=C4N=C1[C@@H](CCC(N)=O)C\\4(C)C)[C@@H](CCC(N)=O)[C@]\\3(C)CC(N)=O)[C@@H](CCC(N)=O)[C@]2(C)CC(N)=O.[CH3-].[Co+3]", "note": "[methylcobalamin]", "values": [{"measurement": "subjects who reported a benefit (reduced frequency of minor RAU, reduced duration of ulcers, or reduced peak pain levels)", "setting": "[1]", "result": 100, "unit": "%"}, {"measurement": "time after stopping the discs until an ulcer with a pain level like before starting (mean)", "setting": "[2]; five subjects who reported a benefit and stopped using the discs", "result": 4.8, "unit": "days"}, {"measurement": "subjects who reported a benefit of using the discs", "setting": "[2]; twenty-five additional non-blinded subjects, active discs with 500 mcg methylcobalamin", "result": 96, "unit": "%"}]}
